Read-outs that look alike come from different tables or passages of the source. Some results are limits rather than exact numbers.

The source of these data is patent US20210101928A1 (Sage Therapeutics, Inc., priority 2017, published 2021).

The target of the test is GABAA receptor ([35S]-TBPS binding, rat brain cortical membranes). In words: Steroid inhibition of [35S]-TBPS binding. Particulars: in the presence of 5 mM GABA, read-out: TBPS IC50. The protocol:
[^35S]-t-Butylbicyclophosphorothionate (TBPS) binding assays using rat brain cortical membranes in the presence of 5 mM GABA has been described (Gee et al, J. Pharmacol. Exp. Ther. 1987, 241, 346-353; Hawkinson et al, Mol. Pharmacol. 1994, 46, 977-985; Lewin, A. H et al., Mol. Pharmacol. 1989, 35, 189-194).
Briefly, cortices are rapidly removed following decapitation of carbon dioxide-anesthetized Sprague-Dawley rats (200-250 g). The cortices are homogenized in 10 volumes of ice-cold 0.32 M sucrose using a glass/teflon homogenizer and centrifuged at 1500×g for 10 min at 4° C. The resultant supernatants are centrifuged at 10,000×g for 20 min at 4° C. to obtain the P2 pellets. The P2 pellets are resuspended in 200 mM NaCl/50 mM Na—K phosphate pH 7.4 buffer and centrifuged at 10,000×g for 10 min at 4° C. This washing procedure is repeated twice and the pellets are resuspended in 10 volumes of buffer. Aliquots ([…]) of the membrane suspensions are incubated with 3 nM [^35S]-TBPS and […] aliquots of test drug dissolved in dimethyl sulfoxide (DMSO) (final 0.5%) in the presence of 5 mM GABA. The incubation is brought to a final volume of 1.0 mL with buffer. Nonspecific binding is determined in the presence of […] and ranged from 15 to 25%. Following a 90 min incubation at room temp, the assays are terminated by filtration through glass fiber filters (Schleicher and Schuell No. 32) using a cell harvester (Brandel) and rinsed three times with ice-cold buffer. Filter bound radioactivity is measured by liquid scintillation spectrometry. Non-linear curve fitting of the overall data for each drug averaged for each concentration is done using Prism (GraphPad). […] The concentration of test compound producing 50% inhibition (IC50) of specific binding and the maximal extent of inhibition (Imax) are determined for the individual experiments with the same model used for the overall data and then the means±SEM.s of the individual experiments are calculated.
Various compounds are or can be screened to determine their potential as modulators of [^35S]-TBPS binding in vitro. These assays are or can be performed in accordance with the above.

Where [1] appears, read: Table III-1 (biological data), 3 nM [35S]-TBPS.

Usually IC50 stands for the concentration needed to halve the response being measured. Consider `CC[C@]12CC[C@@](C)(O)C[C@@H]1CC[C@H]1[C@@H]3CC[C@H](C(=O)Cn4nccn4)[C@@]3(C)CC[C@@H]12` [II-A8a], for which, for the setting “Table II-2, 3 nM [35S]-TBPS”, the half-maximal inhibitory concentration (IC50) fell in the range of 10 to 100 nM.
Same read-out and setting: the result for `CC[C@]12CC[C@@](C)(O)C[C@@H]1CC[C@H]1[C@@H]3CC[C@H](C(=O)CN4CCOCC4)[C@@]3(C)CC[C@@H]12` [II-A9, 1-((3R,5S,8S,9S,10S,13S,14S,17S)-10-ethyl-3-hydroxy-3,13-dimethylhexadecahydro-1H-cyclopenta[a]phenanthren-17-yl)-2-morpholinoethan-1-one] reads 10 to 100 nM.
On to `CC[C@]12CC[C@@](C)(O)C[C@@H]1CC[C@H]1[C@@H]3CC[C@H](C(=O)CN4CCN(S(C)(=O)=O)CC4)[C@@]3(C)CC[C@@H]12` [II-A10, 1-((3R,5S,8S,9S,10S,13S,14S,17S)-10-ethyl-3-hydroxy-3,13-dimethylhexadecahydro-1H-cyclopenta [a]phenanthren-17-yl)-2-(4-(methylsulfonyl)piperazin-1-yl)ethan-1-one], for which the 50% inhibitory concentration (IC50) (Table II-2, 3 nM [35S]-TBPS) lay in the range of 10 to 100 nM.
Take `CC[C@]12CC[C@@](C)(O)C[C@@H]1CC[C@H]1[C@@H]3CC[C@H](C(=O)CO)[C@@]3(C)CC[C@@H]12` [II-A11, 1-((3R,5S,8S,9S,10S,13S,14S,17S)-10-ethyl-3-hydroxy-3,13-dimethylhexadecahydro-1H-cyclopenta[a]phenanthren-17-yl)-2-hydroxyethan-1-one]: where the note is “Table II-2, 3 nM [35S]-TBPS”, the IC50 was in the range of 10 to 100 nM.
Still for that read-out and setting: as for `CC[C@]12CC[C@](O)(COC)C[C@H]1CC[C@H]1[C@@H]3CC[C@H](C(=O)N4CCCC[C@@H]4C)[C@@]3(C)CC[C@@H]12` [II-B11, ((3R,5R,8S,9S,10S,13S,14S,17S)-10-ethyl-3-hydroxy-3-(methoxymethyl)-13-methylhexadecahydro-1H-cyclopenta[a]phenanthren-17-yl)((S)-2-methylpiperidin-1-yl)methanone], the figure is 10 to 100 nM; as for `CCOC[C@@]1(O)CC[C@@]2(CC)[C@H](CC[C@H]3[C@@H]4CC[C@H](C(C)=O)[C@@]4(C)CC[C@@H]32)C1` [II-C4, 1-((3R,5R,8S,9S,10S,13S,14S,17S)-3-(ethoxymethyl)-10-ethyl-3-hydroxy-13-methylhexadecahydro-1H-cyclopenta[a]phenanthren-17-yl)ethan-1-one], 10 to 100 nM; as for `CCOC[C@@]1(O)CC[C@@]2(CC)[C@H](CC[C@H]3[C@@H]4CC[C@H](C(=O)Cn5cc(C#N)cn5)[C@@]4(C)CC[C@@H]32)C1` [II-C8, 1-(2-((3R,5R,8S,9S,10S,13S,14S,17S)-3-(ethoxymethyl)-10-ethyl-3-hydroxy-13-methylhexadecahydro-1H-cyclopenta[a]phenanthren-17-yl)-2-oxoethyl)-1H-pyrazole-4-carbonitrile], less than 10 nM.
On to `CCOC[C@@]1(O)CC[C@@]2(CC)[C@@H](CC[C@H]3[C@@H]4CC[C@H](C(C)=O)[C@@]4(C)CC[C@@H]32)C1` [II-D9], for which the concentration for half-maximal inhibition (IC50) (Table II-2, 3 nM [35S]-TBPS) is 10 to 100 nM.
Still for that read-out and setting: the result for `CCOC[C@@]1(O)CC[C@@]2(CC)[C@@H](CC[C@H]3[C@@H]4CC[C@H](C(=O)N5CCCC[C@@H]5C)[C@@]4(C)CC[C@@H]32)C1` [II-D11, ((3R,5S,8S,9S,10S,13S,14S,17S)-3-(ethoxymethyl)-10-ethyl-3-hydroxy-13-methylhexadecahydro-1H-cyclopenta[a]phenanthren-17-yl)((S)-2-methylpiperidin-1-yl)methanone] reads 100 to 1000 nM.
As for `CCOC[C@@]1(O)CC[C@@]2(CC)[C@@H](CC[C@H]3[C@@H]4CC[C@H](C(=O)Cn5ccc(C#N)n5)[C@@]4(C)CC[C@@H]32)C1` [II-D13, 1-(2-((3R,5S,8S,9S,10S,13S,14S,17S)-3-(ethoxymethyl)-10-ethyl-3-hydroxy-13-methylhexadecahydro-1H-cyclopenta[a]phenanthren-17-yl)-2-oxoethyl)-1H-pyrazole-3-carbonitrile], the 50% inhibitory concentration (IC50) (Table II-2, 3 nM [35S]-TBPS) fell in the range of 10 to 100 nM.
Consider `CC[C@]12CC[C@](O)(COC)C[C@@H]1CC[C@H]1[C@@H]3CC[C@H](C(=O)Nc4ccc(C#N)cc4C)[C@@]3(C)CC[C@@H]12` [II-E6, (3R,5S,8S,9S,10S,13S,14S,17S)-N-(4-cyano-2-methylphenyl)-10-ethyl-3-hydroxy-3-(methoxymethyl)-13-methylhexadecahydro-1H-cyclopenta[a]phenanthrene-17-carboxamide], for which, under “Table II-2, 3 nM [35S]-TBPS”, the half-maximal inhibitory concentration (IC50) was less than 10 nM.
Take `CC[C@]12CC[C@](O)(COC)C[C@@H]1CC[C@H]1[C@@H]3CC[C@H](C(=O)Cn4ccc(C#N)n4)[C@@]3(C)CC[C@@H]12` [II-E8, 1-(2-((3R,5S,8S,9S,10S,13S,14S,17S)-10-ethyl-3-hydroxy-3-(methoxymethyl)-13-methylhexadecahydro-1H-cyclopenta[a]phenanthren-17-yl)-2-oxoethyl)-1H-pyrazole-3-carbonitrile]: the concentration for half-maximal inhibition (IC50) (Table II-2, 3 nM [35S]-TBPS) is less than 10 nM.
As for `CO[C@H](C)[C@]12CC[C@@](C)(O)C[C@H]1CC[C@H]1[C@@H]3CC[C@H](C(=O)Cn4nnnc4C)[C@@]3(C)CC[C@@H]12` [II-E13, 1-((3R,5R,8S,9S,10R,13S,14S,17S)-3-hydroxy-10-((R)-1-methoxyethyl)-3,13-dimethylhexadecahydro-1H-cyclopenta[a]phenanthren-17-yl)-2-(5-methyl-1H-tetrazol-1-yl)ethan-1-one], where the note is “Table II-2, 3 nM [35S]-TBPS”, the IC50 was 100 to 1000 nM.
For `CC[C@]12CC[C@@](C)(O)C[C@H]1CC[C@H]1[C@@H]3CC[C@H](C(=O)Nc4ccccc4)[C@@]3(C)CC[C@@H]12` [II-G3, (3R,5R,8S,9S,10S,13S,14S,17S)-10-ethyl-3-hydroxy-3,13-dimethyl-N-phenylhexadecahydro-1H-cyclopenta Ialphenanthrene-17-carboxamide], for the setting “Table II-2, 3 nM [35S]-TBPS”, the 50% inhibitory concentration (IC50) was less than 10 nM.
On the same count and under the same terms, as for `CC[C@]12CC[C@@](C)(O)C[C@H]1CC[C@H]1[C@@H]3CC[C@H](C(=O)c4ccccc4C)[C@@]3(C)CC[C@@H]12` [II-G5, ((3R,5R,8S,9S,10S,13S,14S,17S)-10-ethyl-3-hydroxy-3,13-dimethylhexadecahydro-1H-cyclopenta [a]phenanthren-17-yl)(o-tolyl)methanone], the figure is 10 to 100 nM.
On to `CC[C@]12CC[C@H]3[C@@H](CC[C@@H]4C[C@](C)(O)CC[C@@H]43)[C@@H]1CC[C@@H]2C(=O)Cn1cc(C#N)cn1` [III-A10, 1-(2-((3R,5R,8R,9R,10S,13S,14S,17S)-13-ethyl-3-hydroxy-3-methylhexadecahydro-1H-cyclopenta[a]phenanthren-17-yl)-2-oxoethyl)-1H-pyrazole-4-carbonitrile], for which, under setting [1], the 50% inhibitory concentration (IC50) is less than 10 nM.
Same read-out and setting: the result for `CC[C@]12CC[C@H]3[C@@H](CC[C@H]4C[C@@](O)(COC)CC[C@@H]43)[C@@H]1CC[C@@H]2C(C)=O` [III-A20, 1-((3R,5S,8R,9R,10S,13S,14S,17S)-13-ethyl-3-hydroxy-3-(methoxymethyl)hexadecahydro-1H-cyclopenta [a]phenanthren-17-yl)ethan-1-one] reads 10 to 100 nM.
With `CC[C@]12CC[C@H]3[C@@H](CC[C@H]4C[C@@](O)(COC)CC[C@@H]43)[C@@H]1CC[C@@H]2C(=O)Cn1nnc(C)n1` [III-A22, 1-((3R,5S,8R,9R,10S,13S,14S,17S)-13-ethyl-3-hydroxy-3-(methoxymethyl)hexadecahydro-1H-cyclopenta [a]phenanthren-17-yl)-2-(5-methyl-2H-tetrazol-2-yl)ethan-1-one], the IC50 under setting [1] is less than 10 nM.
On the same count and under the same terms, the result for `CC[C@]12CC[C@H]3[C@@H](CC[C@H]4C[C@@](O)(COC)CC[C@@H]43)[C@@H]1CC[C@@H]2C(=O)Cn1nnnc1C` [III-A23, 1-((3R,5S,8R,9R,10S,13S,14S,17S)-13-ethyl-3-hydroxy-3-(methoxymethyl)hexadecahydro-1H-cyclopenta[a]phenanthren-17-yl)-2-(5-methyl-1H-tetrazol-1-yl)ethan-1-one] reads 100 to 1000 nM.
The same measure, in the same setting: as for `CC[C@]12CC[C@H]3[C@@H](CC[C@@H]4C[C@](C)(O)CC[C@@]43C)[C@@H]1CC[C@@H]2C(C)=O` [III-A30, 1-((3R,5R,8R,9S,10S,13S,14S,17S)-13-ethyl-3-hydroxy-3,10-dimethylhexadecahydro-1H-cyclopenta [a]phenanthren-17-yl)ethan-1-one], the figure is less than 10 nM; as for `CC[C@]12CC[C@H]3[C@@H](CC[C@@H]4C[C@](C)(O)CC[C@@]43C)[C@@H]1CC[C@@H]2C(=O)Cn1nnc(C)n1` [III-A33], less than 10 nM.
